Experimental findings from ChEMBL document CHEMBL4699491, “Identification of TNO155, an Allosteric SHP2 Inhibitor for the Treatment of Cancer” (J Med Chem, 2020) are described below.

pIC50: −log10 of the molar value. Values after ≈ are worked out from the molar mass of the structure shown.

For series [1], the target named is T1, Tyrosine-protein phosphatase non-receptor type 11 (Homo sapiens, UniProt Q06124).
T1 sequence (Q06124 whole entry): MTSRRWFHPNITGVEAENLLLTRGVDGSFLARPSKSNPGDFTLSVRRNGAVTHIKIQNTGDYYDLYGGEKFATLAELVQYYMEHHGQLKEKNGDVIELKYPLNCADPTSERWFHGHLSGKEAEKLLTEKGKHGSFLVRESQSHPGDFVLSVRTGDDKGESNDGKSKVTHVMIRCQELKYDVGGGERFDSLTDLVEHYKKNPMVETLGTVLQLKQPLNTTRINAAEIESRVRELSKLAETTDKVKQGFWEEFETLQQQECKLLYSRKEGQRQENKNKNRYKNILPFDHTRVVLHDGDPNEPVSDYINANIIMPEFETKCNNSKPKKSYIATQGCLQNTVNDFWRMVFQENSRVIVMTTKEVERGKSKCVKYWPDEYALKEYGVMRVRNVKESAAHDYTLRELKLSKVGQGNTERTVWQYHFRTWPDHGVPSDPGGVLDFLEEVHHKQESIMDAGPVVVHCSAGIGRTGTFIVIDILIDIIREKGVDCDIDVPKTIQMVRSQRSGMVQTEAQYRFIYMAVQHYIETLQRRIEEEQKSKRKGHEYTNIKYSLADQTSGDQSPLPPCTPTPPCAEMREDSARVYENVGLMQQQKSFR
Description: Allosteric inhibition of human SHP2 in human KYSE-520 cells assessed as reduction in ERK1/2 phosphorylation by fluorescence based assay

For series [2], the system named is KYSE-520 cell line. The series can be described thus: Antiproliferative activity against human KYSE-520 cells. Format: functional, cell-based.
For series [3], the target named is T2, Tyrosine-protein phosphatase non-receptor type 11 (Homo sapiens) (UniProt Q06124).
T2 sequence (whole entry): T1 sequence (Q06124 whole entry)
The following applies: filed as negative allosteric modulator.

Series [4] concerns NCI-H358. The series can be described thus: Antiproliferative activity against human NCI-H358 cells. It is filed as functional, cell-based.
A short description of series [5]: physchem. The following applies: octanol/water.
Description: Distribution coefficient, logD of the compound
Series [6] can be described thus: physchem. To be noted: octanol/water. This is another data set of the same source.
Description: Lipophilicity, logP of the compound
The nature of series [7]: physchem. To be noted: aqueous, pH 6.8.
Description: Aqueous solubility of the compound at pH 6.8
The target of series [8] is Voltage-gated inwardly rectifying potassium channel KCNH2 (Homo sapiens, UniProt Q12809).
Voltage-gated inwardly rectifying potassium channel KCNH2, sequence (Q12809 whole entry): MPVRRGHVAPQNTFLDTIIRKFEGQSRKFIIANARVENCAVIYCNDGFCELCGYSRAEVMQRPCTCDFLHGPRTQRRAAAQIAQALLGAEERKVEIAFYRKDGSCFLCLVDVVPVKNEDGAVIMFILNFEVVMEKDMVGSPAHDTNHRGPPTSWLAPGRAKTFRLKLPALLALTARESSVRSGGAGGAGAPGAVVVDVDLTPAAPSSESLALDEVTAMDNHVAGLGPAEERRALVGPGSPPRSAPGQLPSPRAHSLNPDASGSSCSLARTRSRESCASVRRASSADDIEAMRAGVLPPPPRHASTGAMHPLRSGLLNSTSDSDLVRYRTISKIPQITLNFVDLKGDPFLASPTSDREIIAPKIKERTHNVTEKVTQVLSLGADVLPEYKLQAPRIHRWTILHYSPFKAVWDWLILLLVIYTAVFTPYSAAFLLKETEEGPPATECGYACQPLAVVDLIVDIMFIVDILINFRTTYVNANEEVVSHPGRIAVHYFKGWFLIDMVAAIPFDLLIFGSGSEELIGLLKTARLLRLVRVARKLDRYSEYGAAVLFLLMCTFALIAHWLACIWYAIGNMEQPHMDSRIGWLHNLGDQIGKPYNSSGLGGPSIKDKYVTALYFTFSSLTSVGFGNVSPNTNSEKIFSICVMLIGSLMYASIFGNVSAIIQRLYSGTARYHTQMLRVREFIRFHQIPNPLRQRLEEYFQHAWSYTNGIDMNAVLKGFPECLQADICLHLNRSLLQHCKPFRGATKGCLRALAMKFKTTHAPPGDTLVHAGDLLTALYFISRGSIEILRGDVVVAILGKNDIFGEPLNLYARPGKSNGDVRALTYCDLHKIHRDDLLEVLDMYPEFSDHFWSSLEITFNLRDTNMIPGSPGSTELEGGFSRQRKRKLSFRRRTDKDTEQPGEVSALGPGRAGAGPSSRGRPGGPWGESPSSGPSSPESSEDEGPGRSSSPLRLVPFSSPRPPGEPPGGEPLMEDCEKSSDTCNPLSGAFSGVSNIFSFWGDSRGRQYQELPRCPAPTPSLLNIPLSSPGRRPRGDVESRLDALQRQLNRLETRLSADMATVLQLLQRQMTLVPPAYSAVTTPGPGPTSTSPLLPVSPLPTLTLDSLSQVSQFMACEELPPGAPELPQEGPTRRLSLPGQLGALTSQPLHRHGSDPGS
Description: Inhibition of human ERG by Q-patch assay
The target of series [9] is Serine/threonine-protein kinase B-raf (Homo sapiens, UniProt P15056). The series can be described thus: Inhibition of RAF in human A-375 cells assessed as reduction in p-ERK levels. Format: cell-based.
Serine/threonine-protein kinase B-raf, sequence (P15056 whole entry): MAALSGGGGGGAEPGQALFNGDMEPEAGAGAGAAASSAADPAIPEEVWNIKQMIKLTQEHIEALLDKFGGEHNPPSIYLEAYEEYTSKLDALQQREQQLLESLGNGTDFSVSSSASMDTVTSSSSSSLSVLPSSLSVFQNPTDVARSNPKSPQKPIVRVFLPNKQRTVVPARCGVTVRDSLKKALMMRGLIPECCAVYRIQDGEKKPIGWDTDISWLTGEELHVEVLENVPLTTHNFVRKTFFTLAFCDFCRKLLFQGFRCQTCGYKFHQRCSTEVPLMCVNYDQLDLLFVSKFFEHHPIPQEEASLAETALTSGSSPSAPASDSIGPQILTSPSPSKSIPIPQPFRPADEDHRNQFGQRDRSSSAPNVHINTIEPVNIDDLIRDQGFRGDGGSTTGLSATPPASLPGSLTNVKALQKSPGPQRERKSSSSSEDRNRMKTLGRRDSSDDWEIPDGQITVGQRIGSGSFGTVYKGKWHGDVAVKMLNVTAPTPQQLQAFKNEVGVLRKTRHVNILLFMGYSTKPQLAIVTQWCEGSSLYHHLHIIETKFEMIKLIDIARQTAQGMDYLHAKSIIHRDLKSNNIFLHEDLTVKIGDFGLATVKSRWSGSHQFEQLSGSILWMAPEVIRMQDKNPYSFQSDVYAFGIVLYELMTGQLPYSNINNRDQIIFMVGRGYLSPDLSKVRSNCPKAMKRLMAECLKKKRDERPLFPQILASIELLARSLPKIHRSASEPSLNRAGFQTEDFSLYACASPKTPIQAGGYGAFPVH
Series [10] concerns A-375. Put plainly: Antiproliferative activity against human A-375 cells. Format: functional, cell-based.

The pIC50 is the IC50 on a negative log10 scale, so that one unit is a factor of ten. The term ΔTm denotes the change in melting temperature against a reference sample. A word on the logD: it is the decadic logarithm of the distribution of all forms, ionised or not, between an organic phase and buffer at a given pH. As a reminder, the logP is a log measure of how a compound divides between an organic and an aqueous phase. In general, solubility refers to how much of the substance goes into solution per volume. Read a low solubility as a poorly soluble substance.

In turn, `CC1(CN)CCN(c2cnc(Sc3cccc(N)c3Cl)c(N)n2)CC1` showed a pIC50 in series [1] of 7.05. Take `CC(=O)Nc1cccc(-n2c(=O)n(C3CC3)c(=O)c3c(Nc4ccc(I)cc4F)n(C)c(=O)c(C)c32)c1` [TRAMETINIB]: the negative-log IC50 (pIC50) in series [2] (Homo sapiens, KYSE-520) was 8.00. Same read-out and setting: with `CC1(CN)CCN(c2cnc(-c3cccc(Cl)c3Cl)c(N)n2)CC1` the figure was 5.26. For `Nc1nc2ccc(Sc3cccc(Cl)c3Cl)nc2[nH]1`, the ΔTm in [3] came out at 1.5 °C. On to `CC1(N)CCN(c2cnc(Sc3ccccc3Cl)c(N)n2)CC1`, for which the pIC50 in series [1] is 6.60; in [2] (kyse-520), 5.09. `C=CC(=O)N1CCN(c2nc(=O)n(-c3c(C)ccnc3C(C)C)c3nc(-c4c(O)cccc4F)c(F)cc23)[C@@H](C)C1` [SOTORASIB] had a pIC50 in series [4] greater than 7.52. In series [2] (Homo sapiens, KYSE-520), `Nc1nccc(Sc2cnc(N3CCC4(CCC[C@H]4N)CC3)cn2)c1Cl` had a negative logarithm of the IC50 (pIC50) of 7.06. The molecule `CC1(CN)CCN(c2cnc(Sc3ccnc(N)c3Cl)c(N)n2)CC1` gave a logD in series [5] of -0.9. For the same molecule, the pIC50 is 6.91 in [1]; 6.07 in series [2] (Homo sapiens, KYSE-520); less than 4.52 in [8]. This molecule also had a logP in [6] of 2. The amount in solution in series [7] (solubility) came to 437 µM (≈ 166 µg/mL). Turning to `CC1(CN)CCN(c2cnc(Sc3cccnc3C(F)(F)F)c(N)n2)CC1`, the pIC50 in series [2] (Homo sapiens, KYSE-520) is 5.39. As to `Cc1ccc(NC(=O)c2ccnc(C(F)(F)F)c2)cc1-c1cc(OCCO)nc(N2CCOCC2)c1` [NAPORAFENIB], the values for the pIC50 in series [9] and in series [10] were 7.11 and 6.62, respectively.
